In brackets after ≈: the same amount, converted by molar mass.
Assays:
Streptococcus pyogenes = experiment: experimental bacterial infection in mice, ED50; assay type: in vivo; conditions: two doses
[1] = tested on: Streptococcus pneumoniae Park I; assay type: cell-based; conditions: agar dilution
Experimental: (§1) In Table VII activity is measured by the minimal inhibitory concentration (MIC), i.e. the lowest concentration of compound at which growth of the microorganism is inhibited by the test compound.

[2] = tested on: Staphylococcus epidermidis EP11; experiment: agar-dilution MIC; assay type: cell-based
Experimental: as §1

[3] = tested on: Streptococcus Group D X66; experiment: agar-dilution MIC; assay type: cell-based
Experimental: as §1

[4] = tested on: Staphylococcus aureus V41; experiment: agar-dilution MIC; assay type: cell-based; conditions: Staphylococcus aureus V41, penicillin-resistant strain
Experimental: as §1

[5] = tested on: Streptococcus pyogenes C203; experiment: agar-dilution MIC; assay type: cell-based
Experimental: as §1

[6] = tested on: Streptococcus Group D 9960; experiment: agar-dilution MIC; assay type: cell-based
toxicity, LD50 in mice = assay type: in vivo; conditions: administered intravenously
Staphylococcus aureus = experiment: experimental bacterial infection in mice, ED50; assay type: in vivo; conditions: two doses
[7] = tested on: Staphylococcus aureus X400; experiment: agar-dilution MIC; assay type: cell-based; conditions: Staphylococcus aureus X400, methicillin-resistant strain
Experimental: as §1

[8] = tested on: Staphylococcus aureus X1.1; experiment: agar-dilution MIC; assay type: cell-based
[9] = tested on: Staphylococcus epidermidis EP12; experiment: agar-dilution MIC; assay type: cell-based
Experimental: as §1

CCCCCCCCCCCC(=O)NCCCCCCCCCCC(=O)N[C@@H](Cc1c[nH]c2ccccc12)C(=O)N[C@H](CC(N)=O)C(=O)N[C@@H](CC(=O)O)C(=O)N[C@@H]1C(=O)NCC(=O)N[C@@H](CCCN)C(=O)N[C@@H](CC(=O)O)C(=O)N[C@H](C)C(=O)N[C@@H](CC(=O)O)C(=O)NCC(=O)N[C@H](CO)C(=O)N[C@@H]([C@H](C)CC(=O)O)C(=O)N[C@@H](CC(=O)c2ccccc2N)C(=O)O[C@@H]1C [Compound 3]
ED50 Streptococcus pyogenes Oral (Streptococcus pyogenes): > 200 mg/kg × 2 | ED50 Streptococcus pyogenes Subcutaneous (Streptococcus pyogenes): 6.2 mg/kg × 2 | MIC [1]: 0.5 µg/mL (≈ 0.273 µM) | MIC [2]: 8 µg/mL (≈ 4.37 µM) | MIC [3]: 8 µg/mL (≈ 4.37 µM) | MIC [4]: 2 µg/mL (≈ 1.09 µM) | MIC [5]: 2 µg/mL (≈ 1.09 µM) | MIC [6]: 8 µg/mL (≈ 4.37 µM) | LD50 in Mice (toxicity, LD50 in mice): 600 mg/kg | ED50 Staphylococcus aureus Subcutaneous (Staphylococcus aureus): > 18 mg/kg × 2 | MIC [7]: 8 µg/mL (≈ 4.37 µM) | MIC [8]: 2 µg/mL (≈ 1.09 µM) | MIC [9]: 8 µg/mL (≈ 4.37 µM)

CCCCCCCCCCCC(=O)Nc1cccc(C(=O)N[C@@H](Cc2c[nH]c3ccccc23)C(=O)N[C@H](CC(N)=O)C(=O)N[C@@H](CC(=O)O)C(=O)N[C@@H]2C(=O)NCC(=O)N[C@@H](CCCN)C(=O)N[C@@H](CC(=O)O)C(=O)N[C@H](C)C(=O)N[C@@H](CC(=O)O)C(=O)NCC(=O)N[C@H](CO)C(=O)N[C@@H]([C@H](C)CC(=O)O)C(=O)N[C@@H](CC(=O)c3ccccc3N)C(=O)O[C@@H]2C)c1 [Compound 5]
ED50 Streptococcus pyogenes Oral (Streptococcus pyogenes): > 200 mg/kg × 2 | MIC [1]: 0.25 µg/mL (≈ 0.141 µM) | MIC [2]: 2 µg/mL (≈ 1.13 µM) | MIC [3]: 4 µg/mL (≈ 2.26 µM) | MIC [4]: 0.5 µg/mL (≈ 0.283 µM) | MIC [5]: 0.25 µg/mL (≈ 0.141 µM) | MIC [6]: 1 µg/mL (≈ 0.566 µM) | LD50 in Mice (toxicity, LD50 in mice): 277 mg/kg | ED50 Staphylococcus aureus Subcutaneous (Staphylococcus aureus): 1.67 mg/kg × 2 | MIC [7]: 1 µg/mL (≈ 0.566 µM) | MIC [8]: 0.5 µg/mL (≈ 0.283 µM) | MIC [9]: 1 µg/mL (≈ 0.566 µM)

CCC(C)CCCCCCC(=O)N[C@@H](Cc1c[nH]c2ccccc12)C(=O)N[C@@H](CC(N)=O)C(=O)N[C@@H](CC(=O)O)C(=O)N[C@@H]1C(=O)NCC(=O)N[C@@H](CCCNC(=O)CCC(=O)O)C(=O)N[C@@H](CC(=O)O)C(=O)N[C@H](C)C(=O)N[C@@H](CC(=O)O)C(=O)NCC(=O)N[C@H](CO)C(=O)N[C@@H]([C@H](C)CC(=O)O)C(=O)N[C@@H](CC(=O)c2ccccc2N)C(=O)O[C@@H]1C (stereo partly shown) [Compound 15]
ED50 Streptococcus pyogenes Subcutaneous (Streptococcus pyogenes): 1.02 mg/kg × 2 | MIC [1]: 0.25 µg/mL (≈ 0.144 µM) | MIC [2]: 4 µg/mL (≈ 2.31 µM) | MIC [3]: 4 µg/mL (≈ 2.31 µM) | MIC [4]: 2 µg/mL (≈ 1.15 µM) | MIC [5]: 1 µg/mL (≈ 0.576 µM) | MIC [6]: 4 µg/mL (≈ 2.31 µM) | LD50 in Mice (toxicity, LD50 in mice): 250 mg/kg | ED50 Staphylococcus aureus Subcutaneous (Staphylococcus aureus): > 18 mg/kg × 2 | MIC [7]: 8 µg/mL (≈ 4.61 µM) | MIC [8]: 1 µg/mL (≈ 0.576 µM) | MIC [9]: 4 µg/mL (≈ 2.31 µM)

— USRE32311E
